Results from US20130272978A1, “DIHYDROXYACETONE MONOETHERS” (MERCK PATENT GMBH, priority 2010, published 2013).

Key:
[1] = Tanning experiment (liquid skin model); conditions: for L* (Lab values after 24 hours) / a* (Lab values after 24 hours) / b* (Lab values after 24 hours): 1 mmol substance + 1 mmol DL-lysine in ethylene glycol/water, pH=7, after 24 h, UV-VIS spectrometer; for Kinetics of tanning reaction compared with DHA: documented via photos; for Coloration/shade compared with DHA: from Lab values after 24 h; for Speed of tanning reaction relative to DHA: optical assessment
Method: Tanning Experiment (Liquid Skin Model)
1 mmol of the self-tanner substance to be tested are dissolved in 94 ml of ethylene glycol and 6 ml of water (potassium hydrogenphthalate-buffered to pH=7) with 146 mg of DL-lysine (1 mmol) and stirred for 24 hrs. (=liquid skin model). The kinetics are documented via photos. After 24 h, the colour values (L*a*b* system) of the solution are measured by UV-VIS spectrometer (Varian Cary-50) in order to be able to assess the effect on the skin tones.

[2] = Solubility in cosmetic oils (Finsolv TN); format: physicochemical

Solubility in cosmetic oil [2] [%]	Compound	L* (Lab values after 24 hours) [1]	a* (Lab values after 24 hours) [1]	b* (Lab values after 24 hours) [1]	Kinetics of tanning reaction compared with DHA [1]	Coloration/shade compared with DHA [1]	Speed of tanning reaction relative to DHA [1]
–	CCCCCCCOCC(=O)CO [MHDE, 1-heptyloxy-3-hydroxypropan-2-one]	0.1	0.4	0.2	faster tanning reaction than DHA	darker coloration	doubling of the speed
0.24	O=C(CO)COCc1ccccc1 [MBDE, 1-benzyloxy-3-hydroxypropan-2-one]	42.6	32.0	70.0	faster tanning reaction than DHA	strong shift towards a redder shade	doubling of the speed
0.97	O=C(CO)COCC1CCCCC1 [MCHMDE, monocyclohexylmethyl-DHA ether]	45.3	18.2	50.5	–	strong shift towards a more yellow shade	–
2.25	CCCCC(CC)COCC(=O)CO (centres unmarked) [MEHDE, mono-2-ethylhexyl-DHA ether]	86.5	4.7	24.3	–	paler coloration	–
